Data reported in US6403788B1, “Non-genotoxic metalloporphyrins as synthetic catalytic scavengers of reactive oxygen species” (Eukarion, Inc., priority 2000, dated 2002).

Assays:
[1] = Catalase turnover assay, total hydrogen peroxide consumed before inactivation; format: biochemical; conditions: to completion, 15.8 μM compound, 1582 μM hydrogen peroxide, 5 mM Na phosphate pH 7.4
Method: (§1) Catalase activity was measured by incubating the sample compound with hydrogen peroxide and determining the amount of hydrogen peroxide remaining after a period of time using a colorimetric peroxidase-coupled assay method. 10 μM sample compound and 100 μM hydrogen peroxide in 40 mM sodium phosphate pH 7.4 were incubated together at ambient temperature in a multi-well plate. After the desired reaction period had elapsed, 20 μl of peroxidase/ABTS reagent was added (peroxidase/ABTS reagent contained 100 μl of 50 mM Na phosphate, pH 7.4, 1 mg horseradish peroxidase (1310 U/mg) and […]). After five minutes, absorbance at 750 nm was determined. The amount of hydrogen peroxide remaining was calculated based on a standard curve. To compare rates of catalase reaction, the amount of hydrogen peroxide consumed at 20 minutes was determined (See table III). It was also of interest to determine the total number of turnovers completed by the compound before inactivation by hydrogen peroxide. This was assayed under similar conditions, except that 15.8 μM compound was combined with 1582 μM hydrogen peroxide in 5 mM Na phosphate, pH 7.4. Reactions were allowed to proceed to completion and then the amount of hydrogen peroxide remaining was determined as described above. Results showing […] in the turnover assay (nmoles hydrogen peroxide per nmole compound) are also shown in Table III.

[2] = Catalase activity, hydrogen peroxide consumed at 20 minutes; format: biochemical; conditions: over 20 minutes; 10 μM compound, 100 μM hydrogen peroxide, 40 mM sodium phosphate pH 7.4
Method: as §1

With `CC[NH+](CC)CCNS(=O)(=O)c1c(C)cc(C)c(C2=C3C=CC4=[N+]3[Fe-]35[n]6c2ccc6C(c2c(C)cc(C)c(S(=O)(=O)NCC[NH+](CC)CC)c2C)=C2C=CC(=[N+]23)C(c2c(C)cc(C)c(S(=O)(=O)NCC[NH+](CC)CC)c2C)=c2ccc([n]25)=C4c2c(C)cc(C)c(S(=O)(=O)NCC[NH+](CC)CC)c2C)c1C.[Cl-].[Cl-].[Cl-].[Cl-].[Cl-]` [Structural Formula V, meso-tetrakis[3-(N-(2-(N,N-diethylammonio)ethyl)aminosulfonyl)-2,4,6-trimethylphenyl]porphyrinato diaqua-iron (III) pentachloride] the “CATALASE** H2O2 Consumption” value [1] was 36.1 nmole H2O2/nmole Structural Formula compound and the “CATALASE* Rate at 20 mins.” value [2] was 6.4 nmole H2O2/nmole Structural Formula compound.
